Experimental data as given in US11883526B2 (priority 2019, dated 2024).
Where two headings read alike, the source gives them in different places.

Tests used:
[1] = tested on: patients with treatment-resistant depression (TRD); experiment: BPRS positive symptom subscale (Example 7); parameters: species or system human; conditions: in vivo
Method: Adverse events were monitored throughout the study. Other safety assessments (i.e., laboratory tests, vital signs, physical examination) were performed at pre-specified time points. Vital signs, the Clinician Administered Dissociative States Scale (CADSS; Bremner, “Measurement of dissociative states with the clinician-administered dissociative states scale (CADSS)”, J. Traumatic Stress, 1998, 11(1):125-136), and the 4-item positive symptom subscale from the Brief Psychiatric Rating Scale (BPRS; Overall, “The Brief Psychiatric Rating Scale. Psychological Reports”, 1962, 10:799-812) were assessed pre-dose, at 40 minutes, and 2 hours post-dose.

[2] = 14-day study, 54 mg/day intranasal
Method: (§1) This study includes a single dose and 14-day repeated dose neurotoxicity studies with intranasally administered esketamine in female rats 12 to 14 weeks of age. These studies were conducted to investigate whether single or repeated intranasal administrations of esketamine induced neurodegenerative changes in the rat brain. The study results were used to estimate an esketamine exposure-based safety margin compared with the maximum dose of esketamine administered intranasally to depressed adult patients in clinical trials.
Each group of main study animals consisted of 12 female rats. Four satellite animals were added to the esketamine HCl-dosed groups of main study animals for TK purposes. The plasma exposure to esketamine was measured in these animals on the first and the last day of dosing at various time points up to and including 24 hours after the first instillation.

[3] = Description: This example provides an LC-MS/MS method for the determination of ketamine and norketamine in sodium heparin human plasma using ketamine-d4 and norketamine-d4 as the respective internal standards (IS).
[4] = tested on: glutamate NMDA receptor; conditions: in vitro; cited from earlier work
[5] = tested on: patients with treatment-resistant depression (TRD); experiment: CGI-S (Example 7); type: in vivo, human
Method: Overall illness severity was assessed on the Clinical Global Impression of Severity (CGI-S) scale (Guy, “ECDEU Assessment Manual for Psychopharmacology—Revised (DHEW Publ No ADM 76-338)”, Rockville, Md.: U.S. Department of Health, Education, and Welfare, Public Health Service, Alcohol, Drug Abuse, and Mental Health Administration, NIMH Psychopharmacology Research Branch, Division of Extramural Research Programs; 1976, pp 218-222). Participants assessed their severity of anxiety on the Generalized Anxiety Disorder 7-item (GADS-7) Scale (See, Tables 157 and 158). See, Spitzer, “A brief measure for assessing generalized anxiety disorder—the GAD-7”, Arch. Intern. Med., 2006, 166(10):1092-1097.

[6] = tested on: subjects with TRD; conditions: human, in vivo, other: intranasal
Method: FIGS. 53 and 54 present means for blood pressure over time by treatment group in the maintenance phase.
Transient blood pressure increases peaked for the esketamine group at approximately 40 minutes post dose and returned closer to predose levels by 1.5 hours post dose.

[7] = tested on: subjects with TRD; conditions: human, in vivo, other: intranasal; remark: listed apart in the source
Method: The Clinician Administered Dissociative States Scale (CADSS) was measured prior to the start of each dose, at 40 minutes, and 1.5 hours postdose.

[8] = tested on: adult subjects with TRD; conditions: double-blind phase
Method: The MOAA/S was used to measure treatment-emergent sedation, with correlation to levels of sedation defined by the American Society of Anesthesiologists (ASA) continuum. The MOAA/S scores range from 0=no response to painful stimulus (corresponds to ASA continuum for general anesthesia) to 5=readily responds to name spoken in normal tone (awake; corresponds to ASA continuum for minimal sedation).
On each intranasal dosing day, the MOAA/S was performed every 15 minutes from pre-dose to t=+1.5 hours post-dose. If the score was ≤3 at any time during the 1.5 hours post-dose interval, the MOAA/S was performed every 5 minutes until a score of 4 is reached (at which point a frequency of every 15 minutes can be resumed until t=+1.5 hours post dose). […] For subjects with a score of 4, the assessment was repeated every 15 minutes. […]
The Modified Observer's Assessment of Alertness/Sedation (MOAA/S) was used to measure treatment-emergent sedation with correlation to levels of sedation defined by the American Society of Anesthesiologists (ASA) continuum. The MOAA/S scores ranged from 0 (No response to painful stimulus; corresponds to ASA continuum for general anesthesia) to 5 (Readily responds to name spoken in normal tone [awake]; corresponding to ASA continuum for minimal sedation).

[9] = single dose study, 72 mg intranasal
Method: as §1
The vehicle- and the 36 and 54 mg-dosed groups consisted of 24 animals per group, while the 72 mg-dosed and positive control groups involved 30 animals per group. Four satellite animals were added to the esketamine HCl-dosed groups of main study animals for toxicokinetic (TK) purposes. In these animals the plasma exposure to esketamine was measured on the day of dosing at various time points up to and including 24 hours after the first instillation.

[10] = tested on: subjects with MDD at imminent risk for suicide; experiment: MADRS total score, sustained response ([…]2001); type: in vivo, human; conditions: 84 mg; for MADRS total score change from baseline, Diff. of LS Means (minus Placebo): ANCOVA LOCF
Description: Primary efficacy variable/Primary Time point: Change from baseline (Day 1, predose) to Day 1, 4-hours postdose in MADRS total score. The MADRS consists of 10 items that cover all of the core depressive symptoms, with each item scoring from 0 (item is not present or is normal) to 6 (severe or continuous presence of the symptom). A higher score represents a more severe condition.
The primary efficacy endpoint is the change in MADRS total score from baseline to Day 1: 4-hours postdose. MADRS total scores range from 0 to 60. […] As this is a phase 2a proof-of-concept study, statistical significance is based on a two-sided alpha level of 0.20. All p-values presented in this document are two-sided.
Sustained response is defined as at least 50% reduction from baseline in MADRS total score with onset on Day 1: 4 hours postdose that is maintained through the end of the double-blind phase (Day 25). Four subjects in the esketamine 84 mg group and 2 subjects in the placebo group had sustained response throughout the double-blind phase.

## CN[C@]1(c2ccccc2Cl)CCCCC1=O [esketamine, (S)-2-(2-chlorophenyl)-2-(methylamino)cyclohexanone]
[1]
  symptoms suggestive of psychosis (BPRS-positive assessment): No participant manifested symptoms suggestive of psychosis
[2]
  AUC-based safety margin compared with the maximum 84 mg clinical dose: ~11 fold
  Cmax-based safety margin compared with the maximum 84 mg clinical dose: approximately 17 fold
[3]; freeze (−20° C.)/thaw (room temperature)
  QC sample freeze/thaw stability: 3 freeze (−20° C.)/thaw (room temperature) cycles
[3]; human plasma QC sample at −20° C.
  QC sample long-term storage stability: 707 days at −20 °C
[3]; human plasma QC sample, room temperature
  QC sample bench-top stability: 18 hours at room temperature
[4]
  affinity for the glutamate NMDA receptor relative to R-ketamine: 3 to 4 fold
[5]; Period 1 (first day to day 8), 28 mg
  CGI-S change from baseline, Median Change (Range): −1.0 (−2, 1)
[5]; Period 1 (first day to day 8), 56 mg
  CGI-S change from baseline, Median Change (Range): −1.0 (−3, 0)
[5]; Period 1 (first day to day 8), 84 mg
  CGI-S change from baseline, Median Change (Range): −0.5 (−4, 0)
[5]; Period 1, 28 mg
  CGI-S at end point, Median (Range): 4.0 (3, 5)
[5]; Period 1, 56 mg
  CGI-S at end point, Median (Range): 4.0 (1, 5)
[5]; Period 1, 84 mg
  CGI-S at end point, Median (Range): 4.0 (1, 6)
[5]; Period 2 (first day to day 8 of period), 28 mg
  CGI-S change from baseline, Median Change (Range): −1.0 (−1, 0)
[5]; Period 2 (first day to day 8 of period), 56 mg
  CGI-S change from baseline, Median Change (Range): −1.0 (−2, 0)
[5]; Period 2 (first day to day 8 of period), 84 mg
  CGI-S change from baseline, Median Change (Range): −1.0 (−2, 0)
[5]; Period 2, 28 mg
  CGI-S at end point, Median (Range): 4.0 (3, 5)
[5]; Period 2, 56 mg
  CGI-S at end point, Median (Range): 5.0 (4, 6)
[5]; Period 2, 84 mg
  CGI-S at end point, Median (Range): 4.0 (3, 5)
[6]
  blood pressure returned closer to predose levels by: ≤ 1.5 hours post dose
  time of peak of transient blood pressure increase post dose: approximately 40 minutes
[7]
  dissociative and perceptual change symptoms (CADSS) resolved by: ≤ 1.5 hours post dose
[8]
  sedation (MOAA/S) resolved by: ≤ 1.5 hours postdose
[9]
  AUC-based safety margin compared with the maximum 84 mg clinical dose: ~86 fold
  Cmax-based safety margin compared with the maximum 84 mg clinical dose: approximately 60 fold
[10]; ≥50% MADRS reduction from Day 1 4 h through Day 25
  subjects with sustained response throughout the double-blind phase: Four
[10]; Day 1(DB): 4 H, ITT
  MADRS total score change from baseline, Diff. of LS Means (minus Placebo): −5.3
[10]; Day 2(DB), ITT
  MADRS total score change from baseline, Diff. of LS Means (minus Placebo): −7.2
[10]; End Point(DB), ITT
  MADRS total score change from baseline, Diff. of LS Means (minus Placebo): −4.5
[10]; ITT
  Day 25 sustained response (MADRS) No: no. of subjects: 30
[10]; all randomized analysis set
  Withdrawn from double-blind phase: Lack of Efficacy, percent of subjects: (2.8%)
[10]; all randomized analysis set, N = 36
  Withdrawn from double-blind phase: Lack of Efficacy, number of subjects: 1
[10]; at least 50 percent reduction from Day 1 through Day 25, ITT
  Day 25 sustained response (MADRS) Yes: no. of subjects: 4
